Drawing on patent US20240408222A1, “COMPOUNDS, PHARMACEUTICAL COMPOSITIONS, AND METHODS FOR THE TREATMENT, PREVENTION, OR MANAGEMENT OF HYPERPRO[…]” (VINCERX PHARMA GMBH, priority 2021, published 2024), this text covers IC50 and AC50 for 6 compounds.

Structures are written as SMILES.

Test [1] relates to HT29. Briefly: Cytotoxicity in vitro (MTT) in presence/absence of elastase. Type of test: cell-based, human. The settings on record: 72 h. As to the method: (§1) Cultivation of cells was performed according to standard procedures with the media recommended by the provider. The cells, in a total volume of 100 μL, were seeded in a 96-well plate with a white bottom (#3610). After a 24 h incubation period at 37° C. and […], the medium was exchanged by adding 90 μL fresh medium. The treatment started by adding the test compound in 10 μL of culture medium to the cells in triplicates. Concentrations ranging from 10^−5 M to 10^−13 M were chosen. Two identically treated sets of samples were prepared. One set was treated with the test compound alone, whereas to the second set the compound and 10 nM elastase was added followed by a 72 h incubation period at 37° C. and […]. The proliferation was detected using the MTT assay (ATCC). At the end of the incubation period the MTT reagent was added to all samples for 4 h. Lysis of the cells followed by addition of the detergent was done overnight. The formed dye was detected at 570 nm. The proliferation of untreated but otherwise identically handled cells was define as the 100% value.

Test [2] concerns NCI H292. The description is as above. Type of test: cell-based, human. The following applies: 72 h. The procedure: as §1
Test [3] has as its system 786-O. Described as above. Type of test: cell-based, human. The following applies: 72 h. The procedure: as §1
Test [4] relates to HT29. Briefly: Cytotoxicity assay (Version 2, automated, AC50) with/without neutrophil elastase. Type of test: cell-based, human. The settings on record: Version 2, activity concentration at −50%. The procedure:
as §1
(§2) The cytotoxicity assay (Version 2) was performed as described above. Some changes were applied as the assays were performed in an automated fashion and the IC50 values determination was changed. Here the change in metabolic activity of the cells, in percent, was calculated by normalization of the measured values to the absorbance values of medium containing wells without cells (═−100%) and the absorbance of the DMSO-treated cells (═0%). AC50 values (activity concentration at −50%) were determined by means of a 4 parameter Hill-fit using GeneData Screener software.

For test [5], the system named is NCI H292. The description is as above. Type of test: cell-based, human. The settings on record: Version 2, activity concentration at −50%. The procedure: as §1, §2
The test system of test [6] is 786-O. The description is as above. Type of test: cell-based, human. The settings on record: Version 2, activity concentration at −50%. The procedure: as §1, §2
The test system of test [7] is SUM149. Briefly: Cytotoxicity in vitro (MTT) in presence/absence of elastase. Type of test: cell-based. The following applies: 72 h. The procedure: as §1
Test [8] has as its system SUM149. Briefly: Cytotoxicity assay (Version 2, automated, AC50) with/without neutrophil elastase. It is filed as cell-based. The settings on record: Version 2, activity concentration at −50%. The procedure:
as §1, §2

[9] abbreviates: HT29, with (+) 10 nM neutrophil elastase.
Setting [10] is: HT29, without (−) neutrophil elastase.
Where [11] appears, read: NCI H292, with (+) 10 nM neutrophil elastase.
Where [12] appears, read: NCI H292, without (−) neutrophil elastase.
Where [13] appears, read: with (+) 10 nM neutrophil elastase.
[14] abbreviates: without (−) neutrophil elastase.
Setting [15] is: HT29, with (+) neutrophil elastase.
The mark [16] stands for this setting: NCI H292, with (+) neutrophil elastase.
[17] abbreviates: SUM149, with (+) 10 nM neutrophil elastase.
Setting [18] is: SUM149, without (−) neutrophil elastase.
The mark [19] stands for this setting: SUM149, with (+) neutrophil elastase.

Turning to `CCCNC(=O)Nc1cccc(S(=O)(=O)Nc2cccc([C@@H](CC(=O)O)NC(=O)Nc3ccc(NC(=O)N(C)CCN(C)CCN(C)CC(=O)N[C@@H](CC(N)=O)C(=O)N4CCC[C@H]4C(=O)N[C@H](C(=O)N=[S@@](C)(=O)Cc4ccnc(Nc5cc(-c6ccc(F)cc6OC)c(F)cn5)c4)C(C)C)cc3)c2)c1` [Compound 4, N-{2-[{2-[({4-[({(1R)-2-Carboxy-1-[3-({3-[(propylcarbamoyl)amino]benzene-1-sulfonyl}amino)phenyl]ethyl}carbamoyl)amino]phenyl}carbamoyl)(methyl)amino]ethyl} (methyl)amino]ethyl}-N-methylglycyl-L-asparaginyl-L-prolyl-N—[(S)-[(2-{[5-fluoro-4-(4-fluoro-2-methoxyphenyl)pyridine-2-yl]amino}pyridin-4-yl)methyl](methyl)oxo-lambda^6-sulfanylidene]-L-valinamide], the IC50 was 11 to 100 nM in test [1] (setting [9]); above 100 nM in test [1] (setting [10]); 11 to 100 nM in test [2] (setting [11]); above 100 nM in test [2] (setting [12]); 11 to 100 nM in test [3] (setting [13]); above 100 nM in test [3] (setting [14]). Besides, the IC50 is 11 to 100 nM in test [7] (setting [17]) and above 100 nM in test [7] (setting [18]). The AC50 was 100 to 1000 nM in test [4] (setting [15]); above 1000 nM in test [4] (setting [10]); above 1000 nM in test [5] (setting [16]); above 1000 nM in test [5] (setting [12]); 11 to 100 nM in test [6] (with (+) neutrophil elastase); above 1000 nM in test [6] (setting [14]). The AC50 was 100 to 1000 nM in test [8] (setting [19]) and above 1000 nM in test [8] (setting [18]).

As for `CCCNC(=O)Nc1cccc(S(=O)(=O)Nc2cccc([C@@H](CC(=O)O)NC(=O)Nc3ccc(NC(=O)NCCN(C)CCN(C)CCN(C)CC(=O)N[C@@H](CC(N)=O)C(=O)N4CCC[C@H]4C(=O)N[C@H](C(=O)N=[S@](C)(=O)Cc4cc5cc(c4)OCCCCCNc4cc(ccc4F)-c4nc(ncc4F)N5)C(C)C)cc3)c2)c1` (relative stereo) [Compound 17], the IC50 in test [1] (setting [9]) was at most 1 nM; in test [1] (setting [10]), 11 to 100 nM; in test [2] (setting [11]) it was at most 1 nM; in test [2] (setting [12]), 11 to 100 nM; in test [3] (setting [13]), 1.1 to 10 nM; in test [3] (setting [14]) it was above 100 nM. For the same compound, the IC50 is 1.1 to 10 nM in test [7] (setting [17]) and 11 to 100 nM in test [7] (setting [18]). In addition, the AC50 in test [4] (setting [15]) was at most 10 nM; in test [4] (setting [10]), above 1000 nM; in test [5] (setting [16]) it was at most 10 nM; in test [5] (setting [12]), 100 to 1000 nM; in test [6] (with (+) neutrophil elastase) it was at most 10 nM; in test [6] (setting [14]), 100 to 1000 nM. For the same compound, the AC50 in test [8] (setting [19]) was at most 10 nM; in test [8] (setting [18]), 100 to 1000 nM.

`CCCNC(=O)Nc1cccc(S(=O)(=O)Nc2cccc([C@@H](CC(=O)O)NC(=O)Nc3ccc(NC(=O)N(C)CCN(C)CCN(C)CC(=O)N[C@@H](CC(N)=O)C(=O)N4CCC[C@H]4C(=O)N[C@H](C(=O)N=[S@@](C)(=O)Cc4cc5cc(c4)OCCCCOc4cc(F)ccc4-c4nc(ncc4F)N5)C(C)C)cc3)c2)c1` [Compound 5, N-{2-[{2-[({4-[({(1R)-2-Carboxy-1-[3-({3-[(propylcarbamoyl)amino]benzene-1-sulfonyl}amino)phenyl]ethyl}carbamoyl)amino]phenyl}carbamoyl)(methyl)amino]ethyl} (methyl)amino]ethyl}-N-methylglycyl-L-asparaginyl-L-prolyl-N—[(S)-{[16,20-difluoro-2,3,4,5-tetrahydro-12H-13,17-(azeno)-11,7-(metheno)-1,6,12,14-benzodioxadiazacyclononadecin-9-yl]methyl}(methyl)oxo-lambda^6-sulfanylidene]-L-valinamide]: the IC50 in test [1] (setting [9]) was at most 1 nM; in test [1] (setting [10]), above 100 nM; in test [2] (setting [11]) it was 1.1 to 10 nM; in test [2] (setting [12]), above 100 nM; in test [3] (setting [13]), at most 1 nM; in test [3] (setting [14]) it was above 100 nM. Besides, the IC50 in test [7] (setting [17]) is 1.1 to 10 nM; in test [7] (setting [18]), above 100 nM. In addition, the AC50 in test [4] (setting [15]) is 11 to 100 nM; in test [4] (setting [10]) it was above 1000 nM; in test [5] (setting [16]), 11 to 100 nM; in test [5] (setting [12]), 100 to 1000 nM; in test [6] (with (+) neutrophil elastase), 11 to 100 nM; in test [6] (setting [14]), above 1000 nM. Also, the AC50 is 11 to 100 nM in test [8] (setting [19]) and above 1000 nM in test [8] (setting [18]).

Consider `CCCNC(=O)Nc1cccc(S(=O)(=O)Nc2cccc([C@H](CC(=O)O)NC(=O)Nc3ccc(NC(=O)NCCOCCOCCOCCC(=O)N[C@@H](CC(=O)O)C(=O)N4CCC[C@H]4C(=O)N[C@H](C(=O)N=[S@@](C)(=O)Cc4cc5cc(c4)OCCCCOc4cc(F)ccc4-c4nc(ncc4F)N5)C(C)C)cc3)c2)c1` [Compound 14], for which the IC50 in test [1] (setting [9]) was at most 1 nM; in test [1] (setting [10]), above 100 nM; in test [2] (setting [11]), 1.1 to 10 nM; in test [2] (setting [12]) it was above 100 nM; in test [3] (setting [13]) it was at most 1 nM; in test [3] (setting [14]), above 100 nM. Moreover, the IC50 in test [7] (setting [17]) was at most 1 nM; in test [7] (setting [18]), above 100 nM. In addition, the AC50 in test [4] (setting [15]) is 11 to 100 nM; in test [4] (setting [10]), above 1000 nM; in test [5] (setting [16]), 11 to 100 nM; in test [5] (setting [12]), 100 to 1000 nM; in test [6] (with (+) neutrophil elastase), 11 to 100 nM; in test [6] (setting [14]), above 1000 nM. For the same compound, the concentration at half-maximal activity (AC50) in test [8] (setting [19]) is 11 to 100 nM; in test [8] (setting [18]) it was 100 to 1000 nM.

In the case of `CCCNC(=O)Nc1cccc(S(=O)(=O)Nc2cccc([C@@H](CC(=O)O)NC(=O)Nc3ccc(NC(=O)NCCOCCOCCOCCC(=O)N[C@@H](CC(=O)O)C(=O)N4CCC[C@H]4C(=O)N[C@H](C(=O)N=S(C)(=O)Cc4cccc(Nc5ncnc(-c6ccc(F)cc6OC)n5)c4)C(C)C)cc3)c2)c1` (relative stereo) [Compound 1, disodium 1-[(2S)-2-(carboxylatomethyl)-17-{4-[({(1R)-2-carboxylato-1-[3-({3-[(propylcarbamoyl)amino]benzene-1-sulfonyl}amino)phenyl]ethyl}carbamoyl)amino]anilino}-4,17-dioxo-7,10,13-trioxa-3,16-diazaheptadecanan-1-oyl]-L-prolyl-N—[(R*)-[(3-{[4-(4-fluoro-2-methoxyphenyl)-1,3,5-triazin-2-yl]amino}phenyl)methyl](methyl)oxo-lambda^6-sulfanylidene]-L-valinamide], the IC50 in test [1] (setting [9]) is 11 to 100 nM; in test [1] (setting [10]), above 100 nM; in test [2] (setting [11]), 11 to 100 nM; in test [2] (setting [12]), above 100 nM; in test [3] (setting [13]), 11 to 100 nM; in test [3] (setting [14]) it was 11 to 100 nM. In addition, the IC50 in test [7] (setting [17]) is 11 to 100 nM; in test [7] (setting [18]), above 100 nM. In addition, the AC50 in test [4] (setting [15]) is above 1000 nM; in test [4] (setting [10]), above 1000 nM; in test [5] (setting [16]) it was 11 to 100 nM; in test [5] (setting [12]), above 1000 nM; in test [6] (with (+) neutrophil elastase), above 1000 nM; in test [6] (setting [14]), above 1000 nM. For the same compound, the AC50 in test [8] (setting [19]) was 100 to 1000 nM; in test [8] (setting [18]) it was above 1000 nM.

Regarding `CCCNC(=O)Nc1cccc(S(=O)(=O)Nc2cccc([C@@H](CC(=O)O)NC(=O)Nc3ccc(NC(=O)NCCOCCOCCOCCC(=O)N[C@@H](CC(=O)O)C(=O)N4CCC[C@H]4C(=O)N[C@H](C(=O)N=S(C)(=O)Cc4ccnc(Nc5cc(-c6ccc(F)cc6OC)c(F)cn5)c4)C(C)C)cc3)c2)c1` (relative stereo) [Compound 2, disodium 1-[(2S)-2-(carboxylatomethyl)-17-{4-[({(1R)-2-carboxylato-1-[3-({3-[(propylcarbamoyl)amino]benzene-1-sulfonyl}amino)phenyl]ethyl}carbamoyl)amino]anilino}-4,17-dioxo-7,10,13-trioxa-3,16-diazaheptadecanan-1-oyl]-L-prolyl-N—[(S*)-[(2-{[5-fluoro-4-(4-fluoro-2-methoxyphenyl)pyridin-2-yl]amino}pyridin-4-yl)methyl](methyl)oxo-lambda^6-sulfanylidene]-L-valinamide], the IC50 in test [1] (setting [9]) was 1.1 to 10 nM; in test [1] (setting [10]), above 100 nM; in test [2] (setting [11]) it was 11 to 100 nM; in test [2] (setting [12]), above 100 nM; in test [3] (setting [13]), 11 to 100 nM; in test [3] (setting [14]), above 100 nM. Further, the half-inhibitory concentration (IC50) in test [7] (setting [17]) is 11 to 100 nM; in test [7] (setting [18]) it was above 100 nM. In addition, the AC50 is 100 to 1000 nM in test [4] (setting [15]); 100 to 1000 nM in test [4] (setting [10]); 100 to 1000 nM in test [5] (setting [16]); above 1000 nM in test [5] (setting [12]); 100 to 1000 nM in test [6] (with (+) neutrophil elastase); 100 to 1000 nM in test [6] (setting [14]). Moreover, the AC50 in test [8] (setting [19]) and in test [8] (setting [18]) was 100 to 1000 nM in each case.

One may read the IC50 as the midpoint of a concentration-inhibition curve. A high value points to weaker potency. Broadly, the AC50 is the midpoint of the concentration-response curve, whichever way the signal moves. Lower therefore signals greater potency.
